# Data reported in patent publication EP0989131B1, “THIENOTRIAZOLODIAZEPINE COMPOUNDS AND MEDICINAL USES THEREOF” (priority 1996, dated 1998).
# Read-outs that look alike come from different tables or passages of the source.
# What was measured:
# [1] = tested on: E-selectin expression in human umbilical vein-derived endothelial cells (HUVEC); experiment: Inhibitory effect on TNF alpha-induced E-selectin expression in HUVEC (cell ELISA); assay type: cell-based; conditions: for IC50: tumour necrosis factor α 100 U/ml, 5 hr
# Experimental: (§1) HUVEC was suspended in 199 medium containing 20% fetal calf serum, 20 µg/ml endothelial cell growth factor derived from bovine brain, and 100 µg/ml heparin, plated into 96-well microculture plates coated with collagen, and cultured at 37°C in 5% CO2. When cells grew to confluence, the cells received tumour necrosis factor α (20 U/ml for VCAM-1 expression induction, 100 U/ml for E-selectin expression induction) and the test compound, which was followed by further culture for 5 hr. The cells were washed once with 199 medium and mouse anti-human VCAM-1 monoclonal antibody (2 µg/ml) or rat anti-human E-selectin monocolnal antibody (2 µg/ml) was added. The cells were stood for 1 hr at room temperature. The cells were washed twice and peroxidase-conjugated anti-mouse immunoglobulin antibody or anti-rat immunoglobulin antibody was added. The cells were stood for 1 hr at room temperature. The cells were washed 3 times and 2,2'-azino-bis(3-ethylbenzothiazoline-6-sulfonic acid) as a peroxidase substrate was added. The plates were stood for 15 min at room temperature and absorbance at 405 n/490 nm was measured with a 96-well microplate reader, which was used as an indicator of VCAM-1 or E-selectin expression.
# [2] = tested on: VCAM-1 expression in human umbilical vein-derived endothelial cells (HUVEC); experiment: Inhibitory effect on TNF alpha-induced VCAM-1 expression in HUVEC (cell ELISA); assay type: cell-based; conditions: for IC50: tumour necrosis factor α 20 U/ml, 5 hr
# Experimental: as §1
# [3] = tested on: CD11b expression of human histiocytic leukemia cell line U937; experiment: Effect on CD11b expression of human histiocytic leukemia cell line U937 (cell ELISA); assay type: cell-based; conditions: U937 cells; for IC50: PDB 10 ng/ml, cultured 3 days, read-out: Inhibitory effect on CD11b expression (IC50)
# Experimental: Effect on the expression of CD11b antigen, which constitutes the α chain of Mac-1, which is one of the adhesion molecules expressing on the surface of leukocytic cells, was investigated. U937 cells were suspended in RPMI1640 medium containing 20% fetal calf serum, plated with phorbol 12,13-dibutyrate (PDB, 10 ng/ml) and the test compound into 96-well filtration plates (30000 cells/well), and cultured for 3 days at 37°C in 5% CO2. After washing the cells once with RPMI1640 medium, rat anti-human CD11b monoclonal antibody (2 µg/ml) was added and the plates were stood for 1 hr under ice-cooling. The cells were washed twice and peroxidase-conjugated anti-rat immunoglobulin antibody (1 µg/ml) was added. The cells were stood for 1 hr under ice-cooling. The cells were washed 3 times and peroxidase substrate (o-phenylenediamine) for coloring was added. The plates were stood for 15 min at room temperature and absorbance at 490 nm was measured with a 96-well microplate reader, which was used as an indicator of CD 11b antigen expression.
# [4] = tested on: trinitrobenzenesulfonic acid (TNBS)-induced colitis; experiment: Effect on trinitrobenzenesulfonic acid (TNBS)-induced colitis in rat; assay type: in vivo, SD rats; conditions: TNBS sensitized rats, 5 days
# Experimental: Colitis was induced by intraintestinal injection of TNBS solution (60 mg/ml in 50% EtOH, 500 µl) to SD rats. Seven days later, rats were subjected to autopsy and large intestine (8 cm from anus) was cut out and weighed. Myeloperoxidase (MPO) activity in the intestinal tissue was measured and taken as an indicator of infiltrated leukocyte count. That is, the intestine was homogenized and a cycle of freeze-thawing of the tissue was repeated 3 times. The supernatant obtained by centrifugation was assayed for MPO activity using peroxidase substrate (o-phenylenediamine). MPO unit in the supernatant was calculated with the commercial MPO as a standard. The increase in intestinal weight and increase in MPO activity determined as above were taken as indicators of the degree of colitis. Test compound was suspended in 0.5% hydroxypropylmethylcellulose (Metolose)solution and administered p.o. ([…]) or intraintestinally (0.2 ml/rat) for 5 days beginning on the day of TNBS injection.
# [5] = tested on: carrageenan-induced colitis; experiment: Effect on carrageenan-induced colitis in rabbits; assay type: in vivo; conditions: 10 mg/kg consecutively from day 0 for 8 weeks, autopsy day 56, control 10.9 ± 2.0, P<0.05 (Mann-Whitney's U-test)
# Experimental: A mixed emulsion of 1% λ-degraded carrageenan and Freund's complete adjuvant was subcutaneously injected to rabbits for sensitization. Starting from the 7th day (day 0) from sensitization, λ-degraded carrageenan (250-1000 mg/day/rabbit) was forcibly administered orally for 8 weeks to induce colitis. The next day (day 56) of the termination of λ-degraded carrageenan intake, the rabbits were subjected to autopsy and disorder in large intestine was scored using abnormal observation of mucosal epithelium of the tissue sample, level of infiltration of inflammatory cells and the like as indices. The test compounds (10 mg/kg) were consecutively administered from day 0 for 8 weeks.
# [6] = Toxicity test, repeated oral administration; assay type: in vivo; conditions: female rats, repeated oral administration for 10 days, 300 mg/kg
# Description: Compound 2 was repeatedly administered orally to female rats for 10 days.
compound,measurement,setting,value
"5-(2-chlorophenyl)-7-(morpholinocarbonylethyl)-10-methyl-3,4-dihydro-2H,7H-cyclopenta[4,5]thieno[3,2-f][1,2,4]triazolo[4,3-a][1,4]diazepine [Comparison Compound]",E-selectin expression inhibitory effect relative to the activity of Compound 2,[1]; ratio to Compound 2,not more than 1/130
same,IC50,[1],> 10 µM
same,VCAM-1 expression inhibitory effect relative to that of Compound 2,[2]; ratio to Compound 2,not more than 1/90
same,IC50,[2],> 10 µM
same,IC50,[3],> 3000 nM
same,activity relative to the activity of Compound 2 (CD11b expression),[3]; ratio to Compound 2,not more than 1/100
"Cc1sc2c(c1C)C(c1ccc(Cl)cc1)=N[C@@H](CC(=O)Nc1ccc(O)cc1)c1nnc(C)n1-2 [Compound 1, (S)-2-[4-(4-chlorophenyl)-2,3,9-trimethyl-6H-thieno[3,2-f][1,2,4]triazolo[4,3-a][1,4]diazepin-6-yl]-N-(4-hydroxyphenyl)acetamide]","Intestinal weight (mg, mean ± S.D.)","[4]; Table 3A, intraintestinal, 0.01 mg/site, P<0.01 (Dunnett's test)",501.5 ± 78.3 mg
same,"Intestinal weight (mg, mean ± S.D.)","[4]; Table 3A, intraintestinal, 0.1 mg/site, P<0.01 (Dunnett's test)",472.0 ± 43.4 mg
same,"Intestinal weight (mg, mean ± S.D.)","[4]; Table 3A, intraintestinal, 1 mg/site, P<0.01 (Dunnett's test)",460.8 ± 52.3 mg
same,"MPO activity (U/ml, mean ± S.D.)","[4]; Table 3B, intraintestinal, 0.01 mg/site, P<0.05 (Mann-Whitney's U-test)",0.716±0.158 U/ml
same,"MPO activity (U/ml, mean ± S.D.)","[4]; Table 3B, intraintestinal, 0.1 mg/site, P<0.05 (Mann-Whitney's U-test)",0.654±0.109 U/ml
same,"MPO activity (U/ml, mean ± S.D.)","[4]; Table 3B, intraintestinal, 1 mg/site, P<0.05 (Mann-Whitney's U-test)",0.676±0.172 U/ml
"Cc1sc2c(c1C)C(c1ccc(Cl)cc1)=N[C@@H](CC(=O)Nc1ccc(O)cc1)c1nnc(C)n1-2.O.O [Compound 2, (S)-2-[4-(4-chlorophenyl)-2,3,9-trimethyl-6H-thieno[3,2-f][1,2,4]triazolo[4,3-a][1,4]diazepin-6-yl]-N-(4-hydroxyphenyl)acetamide dihydrate]",mean ± S.E. of score (disorder in large intestine),[5],5.3 ± 0.6
same,IC50,[1]; Homo sapiens,0.073 µM
same,IC50,[2]; Homo sapiens,0.11 µM
same,"Intestinal weight (mg, mean ± S.D.)","[4]; Table 4A, intraintestinal, 0.01 mg/site, P<0.01 (Dunnett's test)",499.6 ± 71.7 mg
same,"Intestinal weight (mg, mean ± S.D.)","[4]; Table 4A, intraintestinal, 0.1 mg/site, P<0.01 (Dunnett's test)",502.0 ± 51.5 mg
same,"Intestinal weight (mg, mean ± S.D.)","[4]; Table 4A, intraintestinal, 1 mg/site, P<0.05 (Dunnett's test)",536.0 ± 62.2 mg
same,"MPO activity (U/ml, mean ± S.D.)","[4]; Table 4B, intraintestinal, 0.01 mg/site, P<0.01 (Mann-Whitney's U-test)",0.354 ± 0.081 U/ml
same,"MPO activity (U/ml, mean ± S.D.)","[4]; Table 4B, intraintestinal, 0.1 mg/site, P<0.01 (Mann-Whitney's U-test)",0.334 ± 0.069 U/ml
same,"MPO activity (U/ml, mean ± S.D.)","[4]; Table 4B, intraintestinal, 1 mg/site, P<0.01 (Mann-Whitney's U-test)",0.345 ± 0.097 U/ml
same,"Intestinal weight (mg, mean ± S.D.)","[4]; Table 5A, oral, 0.03 mg/kg, significance none (Dunnett's test)",699.3 ± 163.7 mg
same,"Intestinal weight (mg, mean ± S.D.)","[4]; Table 5A, oral, 1 mg/kg, P<0.01 (Dunnett's test)",468.5 ± 47.6 mg
same,"Intestinal weight (mg, mean ± S.D.)","[4]; Table 5A, oral, 3 mg/kg, P<0.01 (Dunnett's test)",458.0 ± 34.7 mg
same,"MPO activity (U/ml, mean ± S.D.)","[4]; Table 5B, oral, 0.3 mg/kg, significance none (Mann-Whitney's U-test)",1.568 ± 0.538 U/ml
same,"MPO activity (U/ml, mean ± S.D.)","[4]; Table 5B, oral, 1 mg/kg, P<0.05 (Mann-Whitney's U-test)",0.769 ± 0.222 U/ml
same,"MPO activity (U/ml, mean ± S.D.)","[4]; Table 5B, oral, 3 mg/kg, P<0.05 (Mann-Whitney's U-test)",0.740 ± 0.142 U/ml
same,IC50,"[3]; Homo sapiens, U-937, 72 h",< 30 nM
same,death,[6],No case of death was observed
